The text below walks through data of patent publication US5108990A, “Glutamic acid derivatives” (Roussel Uclaf, priority 1987, dated 1992).

Counter-ions that a name gives are not always drawn.

Test [1] relates to monocytes. The test is described as follows: Stimulation of monocytic cells; Interleukin-1 (IL-1) test on supernatants/lysates (mouse thymocyte co-mitogenic assay). It counts as cell-based, human. The note with it: for stimulation of monocytes and their IL-1 production: adherent blood monocytes cultured 24 or 48 hours with test product; for synergy with interferon-γ and or LPS: monocyte stimulation (IL-1 and TNF production), IFN-γ 10^3 U/ml, a dose inactive alone. Here is the method:
(§1) The mononuclear cells of the circulating blood of normal donors were separated by the classical technique described by Boyum using a Ficoll gradient. After being washed, the mononuclear cells were incubated at 37° C. for 1 hour in the proportion of 5×10^6 monocytes (NSE^+ cells) per ml of culture medium, 5 ml per culture bottle. The culture medium used in this experiment was composed of RPMI 1640 to which antibiotics and HEPES buffer had been added. After one hour, the non-adherent cells were removed by washing the bottles with medium previously brought to 37° C., and the adherent cells, composed essentially of monocytes (>90%), were cultured again in the presence of different amounts of test products in a PBS medium (Dulbecco) without Ca^2+ or Mg^2+. Culturing was continued for 24 or 48 hours and the cell supernatants were then withdrawn, centrifuged, aliquoted and stored either at -80° C. or at -20° C. The culture supernatants were replaced in the bottles by the same amount of pyrogen-free distilled water to lyse the cells. The lysate was recovered, aliquoted and also stored at -20° C.
(§2) Tests for the presence in the supernants of monokines (interleukin-1 and tumor necrosis factor) on the basis of their biological activity.
This test was first described by Gery et al in 1972 [Gery et al, 1972 Potentiation of the T Lymphocyte response to mitogens. II. The Cellular Source of Potentiating Mediator(s). J. Exp. Med., 136-143]. It is based on the co-mitogenic action of IL-1 in the presence of an antigen (mimicked by phytohaemagglutinin in the test) on mouse thymocytes. 1.5×10^6 thymocytes of C3 H/HeJ mice (supplied by C.S.E.A.L. of Orleans) were cultured for 3 days in the presence of different dilutions of cell supernatants and lysates likely to contain IL-1 activity, and Wellcome PHA-P (1 μg/ml), in culture plates having 96 flat-bottomed wells, in a final volume of 200 μl of medium composed of RPMI 1640 containing, in addition to antibiotics (penicillin 1 μ/ml streptomycin 1000 μ/ml, 1 mM HEPES buffer, 2 mM glutamine, 5% calf serum and 5×10^-5 M 2-mercaptoethanol). After 68 hours of culturing, 1 μCi of tritiated thymidien was added to each well ([methyl^3 H]-thymidine, CEA Saclay, TMM79A, specific activity […]), and the radioactivity incorporated by the cells was measured after the cultures had been filtered on a Skaton type semi-automatic collecting apparatus and the filters counted in a scintillation counter (LKB). The results were expressed as the difference between the pulses per minute incorporated by the cultures in the presence of supernatants and the pulses per minute incorporated by the control cultures.

Test [2] deals with monocytes. The experiment in a line: Stimulation of monocytic cells; Tumor Necrosis Factor (TNF) test on supernatants (toxicity on L-929 target cells). The test is classed as cell-based, human. The note with it: adherent blood monocytes cultured 24 or 48 hours with test product. Here is the method: as §1, §2
The technique was sensitized by adding actinomycin D to the test. The L cells were distributed in the proportion of 2×10^4 cells per well of a flat-bottomed microplate in 100 μl of RPMI 1640 medium enriched with 5% calf serum, glutamine, HEPES buffer and antibiotics. After 24 hours, different dilutions of the test supernatants were added in a volume of 100 μl, as well as a dose of actinomycin D of 1 μg/ml. After 24 hours of culturing, the number of unlysed viable cells was measured by staining the plates with crystal violet and measuring the optical density of different wells on a multiscan reader.

Another test has as its system human B lymphocytes. The test is described as follows: Production of immuno-globulins (ELISA of supernatants, alone or with Staphylococcus aureus Cowan). The test is classed as cell-based. The note with it: in the presence of SAC (10^-3 and 10^-4); 0.1, 1 and 10 μg/ml; one week. How it is done:
The same cells were cultivated for a week in the presence of different products to be tested at a dose of 0.1, 1 and 10 μg/ml alone or in the presence of two doses of the bacteria Staphylococcus aureus Cowan (SAC) (10^-3 and 10^-4), bacteria known for stimulating the production of immuno-globulins by the human B lymphocytes in a non-specific manner. The supernatants are collected at the end of the culture, and their content of immuno-globulin is evaluated by standard techniques of detection by the ELISA method using a human anti-immunoglobulin anti-body available commercially. The results are given in ng of immuno-globulin per ml of supernatant.
Background: An ELISA detects its analyte on a solid surface through an enzyme-linked reagent.

For the compound `C=C(CC(NC(=O)CC[C@@H](N)C(=O)O)C(=O)O)CC(NC(=O)[C@H](C)N)C(=O)O` (stereo partly drawn) [Example 2, 2-(L-Alanylamino)-6-(γ-D-glutamylamino)-4-methyleneheptanedioic acid], in the test with monocytes [1], the “stimulation of monocytes and their IL-1 production” value is given as “stimulated”; the “synergy with interferon-γ and or LPS” value was “synergy”. In addition, the “stimulation of monocytes and their TNF production” value in the test with monocytes [2] was “stimulated”.

Consider `C=C(CC(N)C(=O)O)CC(NC(=O)CC[C@@H](NC(=O)CCCCCCCCCCCCCCCCC)C(=O)O)C(=O)O` (stereo partly drawn) [Example 9, 2-Amino-4-methylene-6-[[N-(1-oxo-octadecyl)-γ-D-glutamyl]amino]-heptanedioic acid], for which, in the test with monocytes [1], the “stimulation of monocytes and their IL-1 production” value is on record as “stimulated”; the “synergy with interferon-γ and or LPS” value was “synergy”. In addition, the “stimulation of monocytes and their TNF production” value in the test with monocytes [2] was “stimulated”.

For `C=C(CC(N)C(=O)O)CC(NC(=O)CC[C@@H](NC(=O)[C@H](C)NC(=O)CCCCCCCCCCCCCCCCC)C(=O)O)C(=O)O` (stereo partly drawn) [Example 8, 2-Amino-4-methylene-6-[N-1-oxo-octadecyl)-L-alanyl)-γ-D-glutamyl-amino]-heptanedioic acid and its tri sodium salt], in the test on monocytes [1], the “stimulation of monocytes and their IL-1 production” value is given as “stimulated”; the “synergy with interferon-γ and or LPS” value is given as “synergy”. Besides, the “stimulation of monocytes and their TNF production” value in the test with monocytes [2] was “stimulated”. Also, the “production of immuno-globulins in the presence of SAC” value in the test with human B lymphocytes is “capable of increasing the production of immuno-globulins”.

On to `C=C(CC(N)C(=O)O)CC(NC(=O)CC[C@@H](N)C(=O)O)C(=O)O` (stereo partly drawn) [Example 1, 2-amino-6-(γ-D-glutamylamino)-4-methylene-heptanedioic acid], for which, in the test on monocytes [1], the “stimulation of monocytes and their IL-1 production” value is “stimulated”; the “synergy with interferon-γ and or LPS” value is “synergy”. In the test on monocytes [2], the “stimulation of monocytes and their TNF production” value is listed as “stimulated”.
